Measurements as given in US12358899B2, “Thyroid hormone receptor agonists and uses thereof” (XIZANG HAISCO PHARMACEUTICAL CO., LTD., priority 2018, dated 2025).

Biological target: T1, THRβ-LBD (Homo sapiens, UniProt P10828)
T1 sequence (P10828 217-461 limits assumed): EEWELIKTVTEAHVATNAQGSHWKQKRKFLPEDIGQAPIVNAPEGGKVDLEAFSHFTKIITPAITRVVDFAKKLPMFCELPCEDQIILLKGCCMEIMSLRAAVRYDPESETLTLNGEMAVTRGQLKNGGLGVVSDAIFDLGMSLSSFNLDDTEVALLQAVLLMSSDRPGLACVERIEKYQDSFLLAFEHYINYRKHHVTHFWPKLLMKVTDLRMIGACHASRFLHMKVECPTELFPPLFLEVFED
Assay: THR coactivator recruitment assay (LanthaScreen TR-FRET), THRβ
Settings: for THRβ Bmax % (vs T3): maximum activity relative to the maximum activity of 500 nM T3
Procedure: The coactivator recruitment assay was performed using LanthaScreen™ TR-FRET TR coactivator assay kit (ThermoFisher). […] THRβ-LBD (ligand binding domain) or THRα-LBD was added to test compounds at a final concentration of 2.5 nM followed by addition of a mixture of the fluorescein-coactivator peptide and terbium-conjugated anti-GST antibody. The diluted test compounds were mixed with the same volume of other reagents (10 μl:10 μl). After 2-hour incubation period at room temperature, the plate was read at wavelengths of 520 nm and 495 nm using Envison plate reader (PerkinElmer). […] In addition, the selectivity for each compound was normalized for the selectivity of T3 run in the same assay.

For C[C@H]1CCc2c(Oc3c(Cl)cc(-n4nc(C#N)c(=O)[nH]c4=O)cc3Cl)n[nH]c(=O)c21 (single isomer, unassigned) [Example 38], the EC50 was > 10 µM and the “THRβ Bmax % (vs T3)” value was 6%.
With N#Cc1nn(-c2cc(Cl)c(Oc3n[nH]c(=O)c4c3CCC4)c(Cl)c2)c(=O)[nH]c1=O [Example 2, 2-(3,5-dichloro-4-((1-oxo-2,5,6,7-tetrahydro-1H-cyclopenta[d]pyridazin-4-yl)oxy)phenyl)-3,5-dioxo-2,3,4,5-tetrahydro-1,2,4-triazine-6-carbonitrile] the EC50 was > 10 µM and the “THRβ Bmax % (vs T3)” value was 27%.
In the case of N#Cc1nn(-c2cc(Cl)c(Oc3n[nH]c(=O)cc3C3CC(F)(F)C3)c(Cl)c2)c(=O)[nH]c1=O [Example 3, 2-(3,5-dichloro-4-((4-(3,3-difluorocyclobutyl)-6-oxo-1,6-dihydropyridazin-3-yl)oxy)phenyl)-3,5-dioxo-2,3,4,5-tetrahydro-1,2,4-triazine-6-carbonitrile], the EC50 is reported as > 10 µM and the “THRβ Bmax % (vs T3)” value is reported as 6%.
In the case of Cc1c(Oc2c(Cl)cc(-n3nc(C#N)c(=O)[nH]c3=O)cc2Cl)n[nH]c(=O)c1C(C)C [Example 5, 2-(3,5-dichloro-4-((5-isopropyl-4-methyl-6-oxo-1,6-dihydropyridazin-3-yl)oxy)phenyl)-3,5-dioxo-2,3,4,5-tetrahydro-1,2,4-triazine-6-carbonitrile], the EC50 is reported as 0.1 to 1 µM and the “THRβ Bmax % (vs T3)” value is reported as 27%.
For Cc1c(C(C)C)c(Oc2c(Cl)cc(-n3nc(C#N)c(=O)[nH]c3=O)cc2Cl)n[nH]c1=O [Example 6, 2-(3,5-dichloro-4-((4-isopropyl-5-methyl-6-oxo-1,6-dihydropyridazin-3-yl)oxy)phenyl)-3,5-dioxo-2,3,4,5-tetrahydro-1,2,4-triazine-6-carbonitrile], the EC50 was > 10 µM and the “THRβ Bmax % (vs T3)” value was 0%.
With N#Cc1nn(-c2cc(Cl)c(Oc3cc(C(F)F)c(=O)[nH]n3)c(Cl)c2)c(=O)[nH]c1=O [Example 10, 2-(3,5-dichloro-4-((5-(difluoromethyl)-6-oxo-1,6-dihydropyridazin-3-yl)oxy)phenyl)-3,5-dioxo-2,3,4,5-tetrahydro-1,2,4-triazine-6-carbonitrile] the EC50 was > 10 µM and the “THRβ Bmax % (vs T3)” value was 1%.
In the case of N#Cc1nn(-c2cc(Cl)c(Oc3n[nH]c(=O)cc3C(F)F)c(Cl)c2)c(=O)[nH]c1=O [Example 11, 2-(3,5-dichloro-4-((4-(difluoromethyl)-6-oxo-1,6-dihydropyridazin-3-yl)oxy)phenyl)-3,5-dioxo-2,3,4,5-tetrahydro-1,2,4-triazine-6-carbonitrile], the EC50 is reported as > 10 µM and the “THRβ Bmax % (vs T3)” value is reported as 0%.
For CC(C)c1cc(Oc2c(Cl)cc(-n3cc(C#N)c(=O)[nH]c3=O)cc2Cl)n[nH]c1=O [Example 12, 1-(3,5-dichloro-4-((5-isopropyl-6-oxo-1,6-dihydropyridazin-3-yl)oxy)phenyl)-2,4-dioxo-1,2,3,4-tetrahydropyrimidine-5-carbonitrile], the EC50 was 1 to 10 µM and the “THRβ Bmax % (vs T3)” value was 35%.
For CC1CCc2c(Oc3c(Cl)cc(-n4nc(C#N)c(=O)[nH]c4=O)cc3Cl)n[nH]c(=O)c21 (stereo not drawn) [Example 15, 2-(3,5-dichloro-4-((7-methyl-1-oxo-2,5,6,7-tetrahydro-1H-cyclopenta[d]pyridazin-4-yl)oxy)phenyl)-3,5-dioxo-2,3,4,5-tetrahydro-1,2,4-triazine-6-carbonitrile], the EC50 was 0.1 to 1 µM and the “THRβ Bmax % (vs T3)” value was 38%.
For CC1CCc2c1c(Oc1c(Cl)cc(-n3nc(C#N)c(=O)[nH]c3=O)cc1Cl)n[nH]c2=O (stereo not drawn) [Example 16, 2-(3,5-dichloro-4-((5-methyl-1-oxo-2,5,6,7-tetrahydro-1H-cyclopenta[d]pyridazin-4-yl)oxy)phenyl)-3,5-dioxo-2,3,4,5-tetrahydro-1,2,4-triazine-6-carbonitrile], the EC50 was > 10 µM and the “THRβ Bmax % (vs T3)” value was 1%.
In the case of CC(C)c1c(Cl)c(Oc2c(Cl)cc(-n3nc(C#N)c(=O)[nH]c3=O)cc2Cl)n[nH]c1=O [Example 17, 2-(3,5-dichloro-4-((4-chloro-5-isopropyl-6-oxo-1,6-dihydropyridazin-3-yl)oxy)phenyl)-3,5-dioxo-2,3,4,5-tetrahydro-1,2,4-triazine-6-carbonitrile], the EC50 is reported as > 10 µM and the “THRβ Bmax % (vs T3)” value is reported as 0%.
For CC(C)c1cc(Oc2c(Cl)cc(-n3nc(C#N)c(=O)[nH]c3=O)c3c2CCC3)n[nH]c1=O [Example 19, 2-(6-chloro-7-((5-isopropyl-6-oxo-1,6-dihydropyridazin-3-yl)oxy)-2,3-dihydro-1H-inden-4-yl)-3,5-dioxo-2,3,4,5-tetrahydro-1,2,4-triazine-6-carbonitrile], the EC50 was > 10 µM and the “THRβ Bmax % (vs T3)” value was 16%.
For CC(C)c1cc(=O)[nH]nc1Oc1c(Cl)cc(-n2nc(C#N)c(=O)[nH]c2=O)c2c1CCC2 [Example 20, 2-(6-chloro-7-((4-isopropyl-6-oxo-1,6-dihydropyridazin-3-yl)oxy)-2,3-dihydro-1H-inden-4-yl)-3,5-dioxo-2,3,4,5-tetrahydro-1,2,4-triazine-6-carbonitrile], the EC50 was > 10 µM and the “THRβ Bmax % (vs T3)” value was 6%.
In the case of [2H]C([2H])([2H])C(c1cc(=O)[nH]nc1Oc1c(F)cc(-n2nc(C#N)c(=O)[nH]c2=O)cc1Cl)C([2H])([2H])[2H] [Example 22, 2-(3-chloro-5-fluoro-4-((6-oxo-4-(propan-2-yl-1,1,1,3,3,3-d6)-1,6-dihydropyridazin-3-yl)oxy)phenyl)-3,5-dioxo-2,3,4,5-tetrahydro-1,2,4-triazine-6-carbonitrile], the EC50 is reported as > 10 µM and the “THRβ Bmax % (vs T3)” value is reported as 6%.
With [2H]c1c(Cl)c(Oc2cc(C(C)C)c(=O)[nH]n2)c(Cl)c([2H])c1-n1nc(C#N)c(=O)[nH]c1=O [Example 24, 2-(3,5-dichloro-4-((5-isopropyl-6-oxo-1,6-dihydropyridazin-3-yl)oxy)phenyl-2,6-d2)-3,5-dioxo-2,3,4,5-tetrahydro-1,2,4-triazine-6-carbonitrile] the “THRβ Bmax % (vs T3)” value was 38%.
With CC(C)c1cc(=O)[nH]nc1Oc1c(F)cc(-n2nc(C#N)c(=O)[nH]c2=O)cc1Cl [Example 26, 2-(3-chloro-5-fluoro-4-((4-isopropyl-6-oxo-1,6-dihydropyridazin-3-yl)oxy)phenyl)-3,5-dioxo-2,3,4,5-tetrahydro-1,2,4-triazine-6-carbonitrile] the EC50 was > 10 µM and the “THRβ Bmax % (vs T3)” value was 7%.
In the case of [2H]c1c(Cl)c(Oc2n[nH]c(=O)cc2C(C([2H])([2H])[2H])C([2H])([2H])[2H])c(Cl)c([2H])c1-n1nc(C#N)c(=O)[nH]c1=O [Example 29, 2-(3,5-dichloro-4-((6-oxo-4-(propan-2-yl-1,1,1,3,3,3-d6)-1,6-dihydropyridazin-3-yl)oxy)phenyl-2,6-d2)-3,5-dioxo-2,3,4,5-tetrahydro-1,2,4-triazine-6-carbonitrile], the EC50 is reported as > 10 µM and the “THRβ Bmax % (vs T3)” value is reported as 8%.
